Data reported in patent US20070249682A1, “Novel CD40:CD154 binding interruptor compounds and use thereof to treat immunological complications” (priority 2000, published 2007).

Each compound was assayed against T1, TNF-α:TNFRp60 interaction (Homo sapiens, UniProt P01375) (assay: Binding assay (ELISA): compound inhibits binding of biotin-TNF-α to immobilized TNFRp60 (Example 8)). Details: average value; read-out: IC50 for TNF-α:TNFRp60 binding interruption.
T1 construct: purchased R&D System
Text: (§1) IC50, as used herein, is the concentration at which a compound interrupts the interaction of a protein and its receptor to 50% interaction in the assay shown in Example 7 (for interruption of CD40:CD154 interaction) and Example 8 (for interruption of TNF-α:TNFRp60 interaction). Examples of such protein and receptor pairs are CD40:CD154 and TNF-α:TNFRp60.
Binding Assay to Assess whether a Compound Binds to TNF-α and Inhibits TNF-α/TNFRp60 Interaction
1) Ninety-six well plates of Nunc Maxisorp were coated with 100 μl/well of 0.6 ug/ml tumor necrosis factor receptor p60 (TNFRp60) (Browning, J. L.; Douglas, I.; Ngam-ek, A.; Bourdon, P. R.; Ehrenfels, B. N.; Miatkowski, K.; Zafari, M.; Yampaglia, A. M.; Lawton, P.; Meier, W.; Benjamin, C. P.; Hession, C. J. Immunol. 1995, 154, 33-46) in PBS, pH 7.2, covered with plate sealers (Costar, Cat. No. 3095) and stored overnight at 4° C.
2) The coated plates were shook out and blotted dry.
3) TNFRp60-coated plates were blocked with 300 μl per well of PBS (0.05% Tween-20, 1% BSA, made from media prep) at 4° C. for one hour. Plates were stored for 3 weeks at 4° C. […]
14) The plates were read within 30 minutes of adding stop reagent at […] by microplate reader (Molecular Devices Co.) […]
Compounds that blocked TNF-α/TNFRp60 interaction prevented TNF-α from binding to immobilized TNFRp60 and gave a low absorbance reading. […]

T1 sequence (P01375 77-233 limits assumed, species assumed): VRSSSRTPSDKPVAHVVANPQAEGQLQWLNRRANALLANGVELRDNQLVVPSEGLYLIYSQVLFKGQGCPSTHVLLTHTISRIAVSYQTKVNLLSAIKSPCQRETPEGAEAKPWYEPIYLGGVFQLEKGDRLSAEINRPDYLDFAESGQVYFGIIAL

IC50 [µM] | SMILES
> 125 | O=C(Nc1cccc(S(=O)(=O)Nc2cc3ccccc3cc2C(=O)O)c1)Nc1cccc(S(=O)(=O)Nc2cc3ccccc3cc2C(=O)O)c1 [BIO-002108-00, reference compound]

The compounds below were run against T2, CD40:CD154 interaction (Homo sapiens, UniProt P29965) (assay: Binding assay (ELISA): compound binds CD154 and inhibits binding of biotin-CD154 to immobilized CD40-Ig (Example 7)). Details: compounds 12 and 14-21: 'considered to have' the IC50 range (not worded as 'shown'); read-out: IC50 for CD40:CD154 binding interruption.
T2 construct: made in house; host or cells: Pichia (CD40-Ig only)
T2 sequence (P29965 116-261 limits assumed): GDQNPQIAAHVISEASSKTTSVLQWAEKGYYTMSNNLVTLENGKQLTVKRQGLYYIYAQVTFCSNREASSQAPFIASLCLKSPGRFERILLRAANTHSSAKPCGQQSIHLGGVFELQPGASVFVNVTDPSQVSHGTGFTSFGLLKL
Text: as §1
Binding Assay to Assess whether a compound Binds CD154 and Inhibits CD40:CD154 Interaction
1) Ninety-six well plates of Nunc Maxisorp were coated with 100 μl of 5-10 μg/ml human CD40-Ig produced in Pichia cells, (in PBS pH 7.2) per well, covered with plate sealers (Costar, Cat. No. 3095) and stored overnight at 4° C.
2) The CD40-Ig-coated plates were shook out and blotted dry.
3) The CD40-Ig-coated plates were blocked with 300 μl per well of PBS (0.05% Tween-20, 1% BSA, pH 7.2) at RT for one hour or in the refrigerator for up to 3 weeks.
4) The CD40-Ig-coated plates were washed 3× with PBS+0.05% Tween-20 pH 7.4 with plate washer at RT.
5) The plates were optionally blotted dry.
6) Primary Screening of compounds: • a. Compounds were titrated in 100 mM Hepes+0.005% BSA pH 7.2 in Titertube (Bio-Rad Laboratories) and 50 μl of titrated compounds was then added into each well of the plate. IC50 parameters: • One 7 point curve per compound was generated where each point was run in triplicate. […] Fifty μl/well of 0.07-1.6 μg/ml biotin-CD154 in 100 mM Hepes+0.005% BSA (pH 7.2) was added per well. Final concentration of biotin-CD154 was […]. It was mixed with compound in each well in the plate. • c. The plates were covered with plate sealer and incubated for one-hour at RT.
7) The plates were washed 3× with plate washer with PBS+0.05% Tween-20 (pH 7.4) at RT.
8) The plates were optionally blotted dry.
9) 100 μl of a 1/300,000 dilution of HRP-Strep/Avidin (Jackson Immuno Research Code3 #016-030-084) was added to each well. Dilution buffer was: PBS+0.05% Tween-20. The plates were covered with plate sealer and incubated for one hour at room temperature.
10) The plates were washed with plate washer 3× at RT.
11) The plates were optionally blotted dry.
12) 100 μl/well of TMB(1-component) (Kirkegarrd & Perry Labs, Prod #50-76-04) was added to each well and incubated at RT about 10 min.
13) 100 μl/well of 0.18M H2SO4 was added to stop reaction in the plates.
14) The plates were read within 30 minutes of stopping the reaction at […] on a microplate reader (Molecular Devices Co.).
Compounds that bound to CD154 and blocked CD40:CD154 interaction prevented CD154 from binding to immobilized CD40-Ig and gave a low absorbance reading.
• 1. Total reaction: Reaction well contained 50 μl of 100 mM Hepes/0.005% BSA (no test compound) • 2. Positive control: Reaction well contained 10 μl of 1 mg/ml 5c8 (anti-CD154 mAb) and 50 μl of 100 mM Hepes/0.005% BSA. • 3. Blank control: Reaction well contained 100 μl 100 mM Hepes/0.005% BSA. • 4. Compound control: Titration series in triplicate of BIO-002108-00.

SMILES | IC50 [µM]
O=C(NC1CCc2ccccc21)c1cc(-c2cc(C(=O)NC(C(=O)O)C3CCCCC3)nc(C(=O)N3CCCC3CN3CCCC3)c2)cc(C(=O)N2CCCC2CN2CCCC2)n1 (stereo not shown) [Compound 12] | 50 to 125
O=C(NCCCc1ccc(Br)cc1)c1cc(-c2cc(C(=O)N[C@H](C(=O)O)C3CCCCC3)nc(C(=O)N3CCC[C@H]3CN3CCCC3)c2)cc(C(=O)N2CCC[C@H]2CN2CCCC2)n1 [Compound 14] | 50 to 125

The remaining lines, values ahead:

IC50 [µM] | SMILES
< 50 | O=C(NCCCCc1ccccc1)c1cc(-c2cc(C(=O)N[C@H](C(=O)O)C3CCCCC3)nc(C(=O)N3CCC[C@H]3CN3CCCC3)c2)cc(C(=O)N2CCC[C@H]2CN2CCCC2)n1 [Compound 15]
50 to 125 | O=C(NC/C=C/c1ccccc1)c1cc(-c2cc(C(=O)NC(C(=O)O)C3CCCCC3)nc(C(=O)N3CCCC3CN3CCCC3)c2)cc(C(=O)N2CCCC2CN2CCCC2)n1 (stereo not shown) [Compound 16]
50 to 125 | CCC(C)C(NC(=O)c1cc(-c2cc(C(=O)NCc3ccccc3Br)nc(C(=O)N3CCCC3CN(C)C)c2)cc(C(=O)N2CCCC2CN(C)C)n1)C(=O)O (stereo not shown) [Compound 17]
50 to 125 | CCC(C)C(NC(=O)c1cc(-c2cc(C(=O)NCc3ccccc3Br)nc(C(=O)N3CCCC3CN(C)C3CCCCC3)c2)cc(C(=O)N2CCCC2CN(C)C2CCCCC2)n1)C(=O)O (stereo not shown) [Compound 18]
50 to 125 | CCC(C)C(NC(=O)c1cc(-c2cc(C(=O)NCc3ccccc3Br)nc(C(=O)N3CCCC3CN3CCCCC3)c2)cc(C(=O)N2CCCC2CN2CCCCC2)n1)C(=O)O (stereo not shown) [Compound 19]
50 to 125 | COC(=O)[C@@H](NC(=O)c1cc(-c2cc(C(=O)NCCCc3ccccc3)nc(C(=O)N3CCC[C@H]3CN3CCCC3)c2)cc(C(=O)N2CCC[C@H]2CN2CCCC2)n1)C1CCCCC1 [Compound 20]
50 to 125 | CC(C)(C)[C@H](NC(=O)c1cc(-c2cc(C(=O)NCCCc3ccccc3)nc(C(=O)N3CCC[C@H]3CN3CCCC3)c2)cc(C(=O)N2CCC[C@H]2CN2CCCC2)n1)C(=O)O [Compound 21]

Same assay, conditions: compounds 'shown to have' the IC50 range; assay of Example 7, top concentration 125 μM; read-out: IC50 for CD40:CD154 binding interruption

IC50 [µM] | SMILES
< 50 | O=C(Nc1cccc(S(=O)(=O)Nc2cc3ccccc3cc2C(=O)O)c1)Nc1cccc(S(=O)(=O)Nc2cc3ccccc3cc2C(=O)O)c1 [BIO-002108-00, reference compound]
50 to 125 | CCC(C)C(NC(=O)c1cc(-c2cc(C(=O)NCc3ccccc3Br)nc(C(=O)N3CCCC3CN3CCCC3)c2)cc(C(=O)N2CCCC2CN2CCCC2)n1)C(=O)O (stereo not shown) [Compound 1]
> 125 | CCC(C)C(NC(=O)c1cc(-c2cc(C(=O)NCc3cccc(OC)c3OC)nc(C(=O)N3CCCC3CN3CCCC3)c2)cc(C(=O)N2CCCC2CN2CCCC2)n1)C(=O)O (stereo not shown) [Compound 2]
> 125 | CCC(C)C(NC(=O)c1cc(-c2cc(C(=O)NC(C)(C)Cc3ccc(F)cc3)nc(C(=O)N3CCCC3CN3CCCC3)c2)cc(C(=O)N2CCCC2CN2CCCC2)n1)C(=O)O (stereo not shown) [Compound 3]
< 50 | O=C(NCCCc1ccccc1)c1cc(-c2cc(C(=O)NC(C(=O)O)C3CCCCC3)nc(C(=O)N3CCCC3CN3CCCC3)c2)cc(C(=O)N2CCCC2CN2CCCC2)n1 (stereo not shown) [Compound 4]
< 50 | O=C(NCCC(c1ccccc1)c1ccccc1)c1cc(-c2cc(C(=O)N[C@H](C(=O)O)C3CCCCC3)nc(C(=O)N3CCC[C@H]3CN3CCCC3)c2)cc(C(=O)N2CCC[C@H]2CN2CCCC2)n1 [Compound 5]
< 50 | O=C(NCc1cccc(-c2ccccc2)c1)c1cc(-c2cc(C(=O)N[C@H](C(=O)O)C3CCCCC3)nc(C(=O)N3CCC[C@H]3CN3CCCC3)c2)cc(C(=O)N2CCC[C@H]2CN2CCCC2)n1 [Compound 6]
50 to 125 | O=C(NCCCc1ccc([N+](=O)[O-])cc1)c1cc(-c2cc(C(=O)NC(C(=O)O)C3CCCCC3)nc(C(=O)N3CCCC3CN3CCCC3)c2)cc(C(=O)N2CCCC2CN2CCCC2)n1 (stereo not shown) [Compound 7]
50 to 125 | Nc1ccc(CCCNC(=O)c2cc(-c3cc(C(=O)NC(C(=O)O)C4CCCCC4)nc(C(=O)N4CCCC4CN4CCCC4)c3)cc(C(=O)N3CCCC3CN3CCCC3)n2)cc1 (stereo not shown) [Compound 8]
50 to 125 | Nc1cccc(C(CCNC(=O)c2cc(-c3cc(C(=O)NC(C(=O)O)C4CCCCC4)nc(C(=O)N4CCCC4CN4CCCC4)c3)cc(C(=O)N3CCCC3CN3CCCC3)n2)c2ccccc2)c1 (stereo not shown) [Compound 10]
< 50 | O=C(NCCC(c1ccccc1)c1ccc([N+](=O)[O-])cc1)c1cc(-c2cc(C(=O)NC(C(=O)O)C3CCCCC3)nc(C(=O)N3CCCC3CN3CCCC3)c2)cc(C(=O)N2CCCC2CN2CCCC2)n1 (stereo not shown) [Compound 11]
50 to 125 | O=C(NCc1ccc2ccccc2c1)c1cc(-c2cc(C(=O)N[C@H](C(=O)O)C3CCCCC3)nc(C(=O)N3CCC[C@H]3CN3CCCC3)c2)cc(C(=O)N2CCC[C@H]2CN2CCCC2)n1 [Compound 13]
